{"source": "ChEMBL document CHEMBL1201862", "about": "“PubChem BioAssay data set” (2004)", "key": {"[1]": {"molecular_target": "T1, Cyclin-dependent kinase 5/CDK5 activator 1 (Homo sapiens, UniProt Q00535)", "T1 sequence (Q00535 whole entry)": "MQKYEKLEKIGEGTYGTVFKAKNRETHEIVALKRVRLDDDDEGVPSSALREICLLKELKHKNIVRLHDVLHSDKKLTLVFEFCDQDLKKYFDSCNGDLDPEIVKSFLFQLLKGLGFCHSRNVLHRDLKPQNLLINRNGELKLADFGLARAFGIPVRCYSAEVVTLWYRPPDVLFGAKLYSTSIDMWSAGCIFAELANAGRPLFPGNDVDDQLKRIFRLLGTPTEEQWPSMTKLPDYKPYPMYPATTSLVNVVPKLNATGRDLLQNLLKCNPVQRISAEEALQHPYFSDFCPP", "T1 sequence (Q15078 whole entry, further chain)": "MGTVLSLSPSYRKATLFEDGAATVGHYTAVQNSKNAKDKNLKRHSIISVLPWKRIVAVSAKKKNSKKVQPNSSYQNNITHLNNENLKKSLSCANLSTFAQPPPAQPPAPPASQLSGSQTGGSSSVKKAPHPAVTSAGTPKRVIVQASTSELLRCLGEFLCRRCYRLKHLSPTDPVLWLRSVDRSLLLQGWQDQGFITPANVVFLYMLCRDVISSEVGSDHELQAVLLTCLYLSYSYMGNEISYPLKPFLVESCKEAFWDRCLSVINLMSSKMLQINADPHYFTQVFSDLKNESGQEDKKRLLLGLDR", "test": "human CDK5 activity blockade – biochemical, microfluidic mobility shift, dry powder, selectivity assay for GSK-3 alpha inhibitor project, dose response (AID 588430)"}, "[2]": {"molecular_target": "Glycogen synthase kinase-3 alpha (Homo sapiens, UniProt P49840)", "sequence (P49840 whole entry)": "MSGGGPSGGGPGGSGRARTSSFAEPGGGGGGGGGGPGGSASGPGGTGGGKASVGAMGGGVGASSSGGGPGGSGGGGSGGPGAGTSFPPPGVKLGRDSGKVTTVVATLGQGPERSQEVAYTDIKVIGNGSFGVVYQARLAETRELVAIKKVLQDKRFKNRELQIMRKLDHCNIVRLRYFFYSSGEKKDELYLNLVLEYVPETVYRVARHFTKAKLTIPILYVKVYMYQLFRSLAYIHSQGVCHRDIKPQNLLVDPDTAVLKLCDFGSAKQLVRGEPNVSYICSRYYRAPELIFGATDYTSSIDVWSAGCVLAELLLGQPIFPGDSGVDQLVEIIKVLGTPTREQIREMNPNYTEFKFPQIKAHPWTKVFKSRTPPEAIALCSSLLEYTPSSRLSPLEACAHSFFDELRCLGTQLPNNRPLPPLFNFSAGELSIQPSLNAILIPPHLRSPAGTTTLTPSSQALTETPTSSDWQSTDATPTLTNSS", "test": "Inhibition of Human GSK-3 alpha Activity Measured in Biochemical System Using Microfluidics - 2063-06_Inhibitor_Dose_DryPowder_Activity_Set2. [Related pubchem assays (depositor defined):AID2709]"}, "[3]": {"molecular_target": "T1, Cyclin-dependent kinase 5/CDK5 activator 1", "test": "blockade of human CDK5 activity – biochemical, cherry-picked samples, set 2, dose response (AID 504545)"}, "[4]": {"molecular_target": "Glycogen synthase kinase-3 beta (Homo sapiens, UniProt P49841)", "sequence (P49841 whole entry)": "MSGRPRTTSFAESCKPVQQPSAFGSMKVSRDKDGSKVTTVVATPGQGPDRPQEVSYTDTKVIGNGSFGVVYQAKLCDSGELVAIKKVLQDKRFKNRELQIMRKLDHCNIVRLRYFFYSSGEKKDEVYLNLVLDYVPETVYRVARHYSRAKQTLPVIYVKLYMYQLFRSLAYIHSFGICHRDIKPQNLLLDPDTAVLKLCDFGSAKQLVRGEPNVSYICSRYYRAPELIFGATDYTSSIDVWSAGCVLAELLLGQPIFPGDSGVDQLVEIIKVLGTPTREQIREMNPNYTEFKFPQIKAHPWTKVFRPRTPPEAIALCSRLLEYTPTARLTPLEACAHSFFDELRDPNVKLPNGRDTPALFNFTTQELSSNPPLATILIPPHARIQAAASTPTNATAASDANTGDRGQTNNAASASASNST", "test": "Inhibition of Human GSK-3 beta Activity Measured in Biochemical System Using Microfluidics - 2063-05_Inhibitor_Dose_DryPowder_Activity_Set2. [Related pubchem assays (depositor defined):AID2709]"}, "[5]": {"molecular_target": "Luciferin 4-monooxygenase (Photinus pyralis, UniProt P08659)", "sequence (P08659 whole entry)": "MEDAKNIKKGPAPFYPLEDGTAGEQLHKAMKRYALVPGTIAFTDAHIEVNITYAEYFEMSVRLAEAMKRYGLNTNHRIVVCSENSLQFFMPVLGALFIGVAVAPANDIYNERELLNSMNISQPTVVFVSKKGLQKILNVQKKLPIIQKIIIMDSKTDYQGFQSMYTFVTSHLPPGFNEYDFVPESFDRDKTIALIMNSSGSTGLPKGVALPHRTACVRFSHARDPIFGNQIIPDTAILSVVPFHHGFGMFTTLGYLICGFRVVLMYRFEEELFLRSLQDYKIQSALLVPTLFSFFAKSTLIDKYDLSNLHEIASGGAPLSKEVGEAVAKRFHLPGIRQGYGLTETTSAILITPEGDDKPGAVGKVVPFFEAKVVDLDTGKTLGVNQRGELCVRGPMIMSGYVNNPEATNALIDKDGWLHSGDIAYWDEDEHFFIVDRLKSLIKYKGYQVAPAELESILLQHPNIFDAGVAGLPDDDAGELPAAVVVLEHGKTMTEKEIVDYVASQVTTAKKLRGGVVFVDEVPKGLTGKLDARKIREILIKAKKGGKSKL", "test": "inhibition of purified Photinus pyralis luciferase – biochemical, dry powder samples, plate reader, dose response (AID 588451)"}, "[6]": {"tested_on": "H4", "test": "Amyloid Precursor 5' UTR neuroblastoma cell reporter line Measured in Cell-Based System Using Plate Reader - 2078-04_Inhibitor_Dose_DryPowder_Activity. [Related pubchem assays (depositor defined):AID488894]", "format": "functional", "details": "Homo sapiens"}, "[7]": {"test": "blockade of melanocortin 4 receptor signaling – cell-based, plate reader, cherry pick, counter-screen for LGR2 antagonist project, dose response (AID 743444);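 further: transfected HEK 293 cells stimulated with alpha-MSH peptide; potency of inhibitors of the alpha-MSH evoked signal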", "format": "functional"}, "[8]": {"tested_on": "Jurkat", "test": "blockers of NF-kB activation in T cells – Jurkat, luciferase reporter, luminescence, B- and T-cell, dose response (AID 489004);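 further: NF-kB luciferase reporter Jurkat cells stimulated with PMA plus ionomycin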", "format": "functional, cell-based", "details": "Homo sapiens"}, "[9]": {"test": "HEK-293T viability loss, compound-treated – cell-based, uHTS hits, cytotoxicity control for B/T-cell NF-kB inhibitor project, dose response (AID 489019);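 further: IC50 reflects cytotoxicity as loss of cell viability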", "format": "functional"}, "[10]": {"test": "blockers of bursicon-stimulated LGR2 cAMP reporter – cell-based, HEK293, CRE-luciferase reporter, cherry pick, set 2, dose response (AID 743343);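 further: transfected cells were stimulated with diluted bursicon conditioned medium after compound addition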", "format": "functional"}, "[11]": {"tested_on": "H4", "test": "inhibitors of control reporter signal in H4 cells – cell-based, plate reader, dry powder samples, counter-screen for prion reporter project, dose response (AID 540255)", "format": "functional", "details": "Homo sapiens"}, "[12]": {"tested_on": "H4", "test": "Inhibitors of Prion Protein 5' UTR mRNA Measured in Cell-Based System Using Plate Reader - 2078-01_Inhibitor_Dose_DryPowder_Activity. [Related pubchem assays (depositor defined):AID488894]", "format": "functional", "details": "Homo sapiens"}}, "note": "Calls of active or inactive are those of the source."}
{"smiles": "COc1ccc2nc3c(cc2c1)c(NC(=O)CC(C)C)nn3CC(C)C", "values": [{"measurement": "AC50", "setting": "[1]", "result": "1400 nM (active)"}, {"measurement": "AC50", "setting": "[2]", "result": "1480 nM (active)"}, {"measurement": "AC50", "setting": "[3]", "result": "32700 nM (active)"}, {"measurement": "AC50", "setting": "[4]", "result": "228 nM (active)"}]}
{"smiles": "Cc1cc(C(=O)COC(=O)c2ccccc2O)c(C)n1CC1CCCO1", "note": "(configuration not stated)", "values": [{"measurement": "AC50", "setting": "[5]", "result": "1050 nM (active)"}, {"measurement": "AC50", "setting": "[6]", "result": "5.98 nM (active)"}, {"measurement": "AC50", "setting": "[7]", "result": "178 nM (active)"}, {"measurement": "IC50", "setting": "[8]", "result": "250 nM (active)"}, {"measurement": "IC50", "setting": "[9]", "result": "> 80000 nM (inactive)"}, {"measurement": "AC50", "setting": "[10]", "result": "178 nM (active)"}, {"measurement": "AC50", "setting": "[11]", "result": "273 nM (active)"}, {"measurement": "AC50", "setting": "[12]", "result": "17 nM (active)"}]}
